Assay results taken from article PMC12703428, “Development of Granzyme A Turn‐ON Fluorescent Activity‐Based Probes” (Chembiochem, 2025).
Square brackets hold non-standard residues; d marks the D form. Ends that are not written are not given here. Oic = O=C(O)[C@@H]1C[C@@H]2CCCC[C@@H]2N1; Tic = O=C(O)[C@@H]1Cc2ccccc2CN1

What was measured:
[1] = target: T1, pro‐form of GzmA (without signal peptide) (Homo sapiens, UniProt P12544); experiment: In-gel fluorescence labeling of pro-form of hGzmA; assay type: biochemical; details: probe 50 nM, 2 h, 37 °C
T1 construct: purchased R&D Systems 2905-SE-010
T1 sequence (P12544 29-262): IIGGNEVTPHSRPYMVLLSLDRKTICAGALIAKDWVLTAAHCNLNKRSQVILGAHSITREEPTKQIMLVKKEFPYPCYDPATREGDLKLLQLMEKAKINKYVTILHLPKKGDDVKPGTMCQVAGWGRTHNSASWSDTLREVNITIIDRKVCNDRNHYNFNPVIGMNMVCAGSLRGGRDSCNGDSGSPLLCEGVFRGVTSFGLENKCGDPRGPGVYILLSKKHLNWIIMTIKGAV
Procedure: Figure 3 GzmA ABPs covalently and competitively label active human and mouse GzmA. […] Recombinant hGzmA (100 nM) was incubated with varying concentrations of each ABP at 37 °C. […] Recombinant hGzmA (100 nM) was preincubated with covalent inhibitors 1 or 2 (5 μM) for 2 h, followed by labeling with ABPs 3 -5 (50 nM) for 2 h at 37 °C. Note: […] C) Structure of qABP 6. D) Quenched natures of 5 and 6. […] F) Labeling of mGzmA (1 μM) with 5 and 6 (1 μM, 24 h, 37 °C). […] Recorded fluorescence at Ex/Em: 380/460 nm for residual GzmA proteolytic activity. […] B. Cell culture and preparation of cell lysates All cell lines were cultured at 37 °C under 5% CO2 in a humidified atmosphere. […] The supernatant was collected, and protein concentration was measured using a Pierce BCA protein assay. […] In-gel fluorescence imaging […] […] In-gel fluorescence and SYPRO-Ruby staining images were acquired on a Typhoon FLA9500 instrument, while western blot images were acquired on an […] […] Conditions for probe/inhibitor treatment for in-gel fluorescence analysis: Inhibitors and probes were incubated with active (or pro-) GzmA followed by treatment with 4X SDS reducing sample buffer. […] 20 μL of each sample was loaded onto a 15% polyacrylamide gel, which was then subjected to electrophoresis followed by the acquisition of in-gel fluorescence images. […]

[2] = Stability of probes in buffer and cell media (hydrolysis by Cy5 signal); assay type: physicochemical; details: cell culture media, 11 h incubation, 37 °C, read-out production of Cy5 fluorescence signal, mean ± SD n = 3
Procedure: Figure 4 Characterization of qABPs in native proteomes. A) Labeling of GzmA by 5 and 6 in lysates of various cell lines (1 h, 37 °C). B) Stability of 5 and 6 in buffer and cell media (11 h, 37 °C). The hydrolysis of probes was measured by monitoring the production of Cy5 fluorescence signal over time. […] C) Labeling of GzmA by probes 3 –6 in NK‐92 cells (2 h, 37 °C). D) Flow cytometry analysis of protein labeling in NK‐92 cells by 3 –5. […] E) Flow cytometry analysis of concentration‐dependent GzmA labeling in NK‐92 cells and S/N of 5 (5 μM, 2 h, 37 °C). […] F) Flow cytometry analysis of protein labeling by 5 in MDA‐MB‐231 cells co‐cultured with NK‐92 cells (see Supporting Information for conditions). […] TEXT PRINTED IN THE PICTURE: (E) qABP 5: S/N = 4

Substance | Labeling of pro-form of GzmA [1] | Hydrolysis of probe [2]
IGNR [compound 5] | No labeling | –
[Tic]G[Oic]R [compound 6] | – | ≈ 20%
